Results taken from patent publication US20030229451A1, “Methods and systems for analyzing complex biological systems” (priority 2001, published 2003).

System: Saccharomyces cerevisiae wild type strain BY4743
Test: AF1 gene expression analysis of yeast cells treated with antifungal drugs
Assay type: cell-based
Conditions: for # Transcripts perturbed: 2x MIC, two hours; for # Pathways Affected by at Least One Gene: p < 0.05
Protocol: Saccharomyces cerevisiae wild type strain BY4743 was purchased from American Type Culture Center (ATCC, Manassas, Va.). The yeast strain was grown in YPD or SD media. H. […] The cultures started from fresh single colonies were grown in 1.0 ml YPD overnight at 30° C. […] The OD600 was adjusted to 1.0 with YPD media, then 2.0 ml of each was inoculated into three 250 ml flasks, each containing 50 ml of SD media. […] The cells were kept growing for another two hours, then collected by centrifugation at 4000 rpm for 5 minutes at 4° C. Pellets were washed once with ice-cold water, then were lyophilized overnight at 4° C. […] Tubes were vortexed for 30 seconds, then incubated for 10 minutes at room temperature (RT). […] Tubes were incubated for 10 minutes at RT. Samples were centrifuged for 20 minutes as before. Pellets were washed with 400 μl 70% ethanol and centrifuged for 10 minutes as before. The pellet was then dissolved in 100 μl nuclease-free water. RNA quality was determined using the Bioanalyzer 2100 and the RNA 6000 assay (Agilent Technologies, Palo Alto, Calif.) according to manufacturer's instructions. RNA concentrations were determined spectrophotometrically by measuring the absorption at, 260 nm in an Ultrospec 2000 (Pharmacia Biotech, Piscataway, N.J.). […] Labeled cRNAs were evaluated using the RNA 6000 assay on the Agilent Bioanalyzer 2100. Labeled cRNA concentrations were determined spectrophotometrically by measuring the absorption at 260 nm in an Ultrospec 2000 (Pharmacia Biotech, Piscataway, N.J.). […] Each pair of samples to be hybridized were independently labeled and hybridized utilizing a fluor reversal for a total of two hybridizations per sample pair. The microarrays were scanned simultaneously in the Cy3 and Cy5 channels with Agilent's 48-slide, Dual Laser DNA Microarray Scanner (Agilent Technologies, Palo Alto, Calif.) at 10 μm resolution using default settings. Image Analysis Software (Version A.4.0.45, Agilent Technologies, Palo Alto, Calif.) was used for image analysis. Each feature was determined from an array's associated pattern file and a detection algorithm. Intensity values for each feature were determined after subtracting background derived from an average of negative control features. Features with unusual pixel intensity statistics (e.g., high non-uniformity, saturation in either channel, and the like) were excluded from downstream analyses. Data was loaded into the Rosetta RESOLVER database (Rosetta Inpharmatics Inc., Kirkland, Wash.) for storage and analysis. Data was evaluated after combining results from fluor reversal replicate hybridizations. The annotation of yeast ORFs was obtained from Proteome BIOKNOWLEDGE Library (Incyte Genomics, Palo Alto, Calif.). In AF1, two different technologies were utilized: gene expression analysis (for examination of mRNA expression) and metabolite analysis. […] As noted previously, existing metabolic databases may be helpful in practicing the methods and systems of the present invention, but many databases include limitations that make their use in data analysis and pathway mapping less than straightforward. […] This caveat to KEGG makes it difficult to pinpoint the correct pathway when attempting to link a gene to a specific pathway.

SMILES | # Transcripts perturbed (P < 0.05) | # Transcripts perturbed (P < 0.1) | # Pathways Affected by at Least One Gene
C[C@@H]1[C@H](O)[C@@H](C)/C=C/C=C/C=C/C=C/C=C/C=C/C=C/[C@H](O[C@@H]2O[C@H](C)[C@@H](O)[C@H](N)[C@@H]2O)C[C@@H]2O[C@](O)(C[C@@H](O)C[C@@H](O)[C@H](O)CC[C@@H](O)C[C@@H](O)CC(=O)O[C@H]1C)C[C@H](O)[C@H]2C(=O)O [Amphoteracin B] | 4363 | 4652 | 97
OC(Cn1cncn1)(Cn1cncn1)c1ccc(F)cc1F [Fluconazole] | 1411 | 1719 | 79
CC[C@@H]([C@H](C)O)n1ncn(-c2ccc(N3CCN(c4ccc(OC[C@@H]5CO[C@@](Cn6cncn6)(c6ccc(F)cc6F)C5)cc4)CC3)cc2)c1=O [Posaconazole] | 690 | 925 | 69
